Data from patent publication US8946263B2, “Compositions and methods for modulating circadian synchronization” (Max-Planck-Gesellchaft zur Forderung der Wissenschaften E.V., priority 2011, dated 2015).

How the values were obtained:
[1] = system: corticosterone excretion rhythms; test: Fecal corticosterone excretion rhythm after 16 days of timed metyrapone injection; format: in vivo, mouse; conditions: for direction of shift of the peak of maximum glucocorticoid levels: mice
Procedure: Fecal samples were collected at 4-hour intervals before and after the jet lag treatment using wheel cages equipped with wire grid floors. To rule out stress-induced effects, animals were transferred to the collection cages 3 days prior to the first sampling interval. Fecal samples were stored at −80° C. Corticoid metabolite extraction and quantification by RIA (MP Biomedicals) were performed as described previously (Abraham et al. 2006).
Administration of metyrapone (Sigma-Aldrich) to WT mice was done for 16 days prior to the jet lag procedure (see above). Two sets of 24 animals each received metyrapone dissolved in water (100 mg/kg body weight per day) via i.p. injection at different times during the day. Injections were stopped 1 day before the LD shift (day 0). METD animals were injected during the first half of their rest phase at ZT3; METN animals received metyrapone injections at the beginning of their activity phase at ZT12. At day 16 of the treatment (day-1 relative to LD shift), fecal samples were collected to analyze the phase shift of corticoid excretion rhythms. Saline-treated (0.9% NaCl) WT littermates injected at ZT3 or ZT12 were used as controls for all experiments.
Peak time analyses were performed using Prism software (GraphPad). A sine wave equation, y=BaseLine+Amplitude sin(frequency x+PhaseShift), was fitted to the data. For gene expression and corticosterone data, frequency was fixed to 24 hours. Maxima were calculated using the axis section of the second derivative. To determine PS50, a sigmoid dose-response curve with variable slope was fitted to the sine wave maxima (corticosterone), y=Bottom+(Top−Bottom) (1+10(log PS50−x) HillSlope), or onset time points (locomotor activity) for each group. To test whether the best-fit PS50 values differed between data sets, data were compared by extra sum-of-squares F test using a P value of less than 0.05 as a threshold. Maxima of gene expression or corticosterone at specific days were compared by Mann-Whitney rank sum test, even if normality tests and equal variance tests were positive, reflecting the small sample sizes of 3-9. A statistically significant difference was assumed with P values less than 0.05. Correlations between phase-shift activity onsets and corticosterone maxima were performed using linear regression. The quality of fit was estimated by r determination. Departure from linearity was tested with runs test. Normality and homoscedasticity tests were passed for all data sets. Diurnal variation of expression data was tested using Fourier analysis with CircWave version 3.3 software (Oster et al. 2006) and threshold values of 0.05 for α and a period of 24 hours.

[2] = system: WT (C57BL/6J) mice; test: Behavioral reentrainment (wheel-running activity onsets) after 6-hour phase advance of the LD cycle; format: in vivo, mouse
Procedure: (§1) Handling and activity measurements during experiments were performed as described previously (Jud et al. 2005). Wheel-running activity was analyzed using ClockLab software (Actimetrics). For the jet lag experiment (6-hour rapid advance or 8-hour rapid delay of the LD cycle), animals were single-housed in running wheel-equipped cages for 2 weeks or longer under LD conditions (lights on, ZT0; light intensities of 350 lux). On day 1 of the jet lag, the lights-off time (ZT12) was shifted from 6 pm to […] (phase advance paradigm) or from 6 pm to 2 am (phase delay paradigm). Using a short day protocol, we defined day 1 as the first advanced dark period (similar to Davidson et al. 2009, who used a short night approach in which the first day is defined by the deemed light period; but different from Yamazaki et al. 2000, where the following day—corresponding to day 2 in our study—was referred to as day 1). […] Animals were synchronized to the new LD regimen for another 2 weeks during which time of wheel-running activity was recorded. Individual activity onsets before and after the shift were determined by visual inspection and averaged over the whole cohort to asses reentrainment rates. […]
(§2) Peak time analyses were performed using Prism software (GraphPad). […] Maxima were calculated using the axis section of the second derivative. […]

[3] = system: WT (C57BL/6J) mice; test: Behavioral reentrainment (wheel-running activity onsets) after 8-hour phase delay of the LD cycle; format: in vivo, mouse
Procedure: as §1, §2

[4] = system: WT (C57BL/6J) mice; test: Observations during the 16-day metyrapone injection period before jet lag; format: in vivo, mouse; conditions: for effect on the onset of wheel-running activity: during injection period
Procedure: Handling and activity measurements during experiments were performed as described previously (Jud et al. 2005). Wheel-running activity was analyzed using ClockLab software (Actimetrics). For the jet lag experiment (6-hour rapid advance or 8-hour rapid delay of the LD cycle), animals were single-housed in running wheel-equipped cages for 2 weeks or longer under LD conditions (lights on, ZT0; light intensities of 350 lux). On day 1 of the jet lag, the lights-off time (ZT12) was shifted from 6 pm to […] (phase advance paradigm) or from 6 pm to 2 am (phase delay paradigm). Using a short day protocol, we defined day 1 as the first advanced dark period (similar to Davidson et al. 2009, who used a short night approach in which the first day is defined by the deemed light period; but different from Yamazaki et al. 2000, where the following day—corresponding to day 2 in our study—was referred to as day 1). For the delay experiment (8-hour rapid delay of the LD cycle), animals were housed in running wheel—equipped single cages for 2 weeks or longer under LD conditions (lights on, ZT0; light intensities of 50 lux). On day 1 of the jet lag, the lights-off time (ZT12) was shifted from 12 pm to 8 pm. Day 1 was defined here as the day with the first delayed dark period. Animals were synchronized to the new LD regimen for another 2 weeks during which time of wheel-running activity was recorded. Individual activity onsets before and after the shift were determined by visual inspection and averaged over the whole cohort to asses reentrainment rates. Administration of metyrapone (Sigma-Aldrich) to WT mice was done for 16 days prior to the jet lag procedure (see above). Two sets of 24 animals each received metyrapone dissolved in water (100 mg/kg body weight per day) via i.p. injection at different times during the day. Injections were stopped 1 day before the LD shift (day 0). METD animals were injected during the first half of their rest phase at ZT3; METN animals received metyrapone injections at the beginning of their activity phase at ZT12. […]

[5] = system: hamsters; conditions: cited from earlier work
[6] = METD (ZT3 injection, 16 days before shift) vs SALD
[7] = METN (ZT12 injection, 16 days before shift) vs SALN

Row | Structure (SMILES) | amplitude of glucocorticoid excretion rhythms ([1]; METD and METN, 16 days of treatment, data not shown) | forward shift of corticosterone maximum relative to SALD control ([1]; METD: 100 mg/kg/day i.p. at ZT3 (rest phase) for 16 days, day prior to phase shift) [h] | backward shift of peak corticosterone relative to SALN ([1]; METN: 100 mg/kg/day i.p. at ZT12 (beginning of activity phase) for 16 days) [h] | direction of shift of the peak of maximum glucocorticoid levels ([1]; administration at 6 pm (first half of the active phase)) | direction of shift of the peak of maximum glucocorticoid levels ([1]; administration at 9 am (first half of rest phase)) | activity resetting after 6-hour phase advance [2, 6] | activity resetting after 6-hour phase advance [2, 7] | behavioral adaptation after 8-hour phase delay [3, 6] | behavioral adaptation after 8-hour phase delay [3, 7] | effect on the onset of wheel-running activity ([4]; METD mice) | effect on the onset of wheel-running activity ([4]; METN mice) | side effect of injection ([4]; daily i.p. injection, 100 mg/kg, 16 days) | circadian responses to light [5] | reentrainment after phase advances of the LD cycle [5]
1 | CC(C)(C(=O)c1cccnc1)c1cccnc1 [metyrapone, 2-methyl-1,2-di-3-pyridyl-1-propanone] | did not significantly change | 1 | 1 | backward shift | forward shift | accelerated activity resetting | reentrained slower | decelerated adaptation | more rapid behavioural adaptation | no effect | only minor effect | transient drowsiness |  | 
2 | CCCc1nn(C)c2c(=O)[nH]c(-c3cc(S(=O)(=O)N4CCN(C)CC4)ccc3OCC)nc12 [sildenafil] |  |  |  |  |  |  |  |  |  |  |  |  | enhances circadian responses to light | accelerates reentrainment
